Results taken from article PMC7179259, “Safety, Tolerability, Pharmacokinetics, and Antimalarial Activity of the Novel Plasmodium Phosphatidylinositol 4-Kinase Inhibitor MMV390048 in Healthy Volunteers” (Antimicrobial Agents and Chemotherapy, 2020).
Read-outs that look alike come from different tables or passages of the source.

Assay: First-in-human single-ascending-dose study: plasma pharmacokinetics
Format: in vivo
Conditions: for half-life / Tmax / AUC(0-inf) / Cmax / Vd/F: human, plasma; for Vd/F: read-out: Vz/F
Procedure: (i) First-in-human study. The study was conducted in five fasted cohorts (5, 20, 40, 80, and 120 mg) and one fed 40-mg cohort. The initial dose of 5 mg was chosen in agreement with guidelines on dose selection for first-in-human clinical studies ([15], [16]) and was based on the no-observed-adverse-event level for the most sensitive species observed in preclinical toxicology studies. Doses administered to subsequent cohorts were determined a priori after consideration of interim human pharmacokinetic and safety data.
All subjects in the fasted cohorts were dosed on day 1 after a fasting period of ≥8 h. Water was prohibited from 2 h predose and then allowed ad libitum from 2 h postdose, and standardized meals were provided from 4 h postdose. In the first two cohorts (5 and 20 mg), a sentinel subcohort (n = 2) was dosed on day 1. The safety review team reviewed safety and pharmacokinetic data of these subjects up to day 3 before dosing the rest of these two cohorts and up to day 19 for all cohorts before dose escalation. […] Selected subjects from the fasted cohorts then received 40 mg in a fed state to evaluate the effect of food on the tolerability and pharmacokinetic profile of MMV390048. […] The predose breakfast was in line with FDA guidelines ([13]) and was composed of approximately 800 to 1,000 calories (cal), with 150, 250, and 500 to 600 cal from protein, carbohydrate, and fat, respectively.
Blood samples from the three studies were analyzed at the University of Cape Town Division of Clinical Pharmacology Laboratory. MMV390048 was extracted from plasma using a protein precipitation procedure and analyzed using a liquid chromatography-tandem mass spectrometry assay. The precision (total assay coefficients of variation) for MMV390048 during sample analysis was less than 8% at all quality control levels, including the limit of quantification, which was 0.5 ng ml^−1. The full details of the assay are included in the supplemental material.
Noncompartmental pharmacokinetic analysis was performed using Phoenix WinNonlin Pro version 6.3 (Certara L.P., St. Louis, MO, USA) for the first-in-human and the formulation optimization studies, and using R version 3.2.0 for the IBSM study. Pharmacokinetic endpoints were the peak plasma concentration (Cmax), time at which Cmax is reached (Tmax), area under the concentration-time curve from 0 h to infinity (AUC0–inf), elimination half-life (t½), apparent clearance (CL/F), and apparent volume of distribution (Vz/F).

[1] = po, 5 mg, single oral 5 mg fasted, powder-in-bottle, n = 6, geometric mean (CV %)
[2] = po, 20 mg, single oral 20 mg fasted, powder-in-bottle, n = 6, geometric mean (CV %)
[3] = po, 40 mg, single oral 40 mg FED (high-fat breakfast), powder-in-bottle, n = 6, geometric mean (CV %)
[4] = po, 40 mg, single oral 40 mg fasted, powder-in-bottle, n = 6, geometric mean (CV %)
[5] = po, 80 mg, single oral 80 mg fasted, powder-in-bottle, n = 6, geometric mean (CV %)
[6] = po, 120 mg, single oral 120 mg fasted, powder-in-bottle, n = 5, geometric mean (CV %)

## CS(=O)(=O)c1ccc(-c2cnc(N)c(-c3ccc(C(F)(F)F)nc3)c2)cc1 [MMV390048]
oral, all cohorts, powder-in-bottle, read-out: elimination half-life
  half-life: > 149 h
oral, fasted cohorts, read-out: median time of maximum concentration (Tmax)
  Tmax: 1 to 2.5 h
[1]
  AUC(0-inf): 2140 ng·h/mL
  Cmax: 15.6 ng/mL
  Vd/F: 520 L
po, 5 mg, single oral 5 mg fasted, powder-in-bottle, n = 6, geometric mean (CV %), read-out: t1/2 (converted)
  half-life: 154 h
po, 5 mg, single oral 5 mg fasted, powder-in-bottle, n = 6, median (range), read-out: Tmax
  Tmax: 1 h
[2]
  AUC(0-inf): 33300 ng·h/mL
  Cmax: 136 ng/mL
  Vd/F: 266 L
po, 20 mg, single oral 20 mg fasted, powder-in-bottle, n = 6, geometric mean (CV %), read-out: t1/2 (converted)
  half-life: 306 h
po, 20 mg, single oral 20 mg fasted, powder-in-bottle, n = 6, median (range), read-out: Tmax
  Tmax: 2 h
[3]
  AUC(0-inf): 34500 ng·h/mL
  Cmax: 155 ng/mL
  Vd/F: 373 L
po, 40 mg, single oral 40 mg FED (high-fat breakfast), powder-in-bottle, n = 6, geometric mean (CV %), read-out: t1/2 (converted)
  half-life: 223 h
po, 40 mg, single oral 40 mg FED (high-fat breakfast), powder-in-bottle, n = 6, median (range), read-out: Tmax
  Tmax: 4 h
[4]
  AUC(0-inf): 17600 ng·h/mL
  Cmax: 74.4 ng/mL
  Vd/F: 624 L
po, 40 mg, single oral 40 mg fasted, powder-in-bottle, n = 6, geometric mean (CV %), read-out: t1/2 (converted)
  half-life: 190 h
po, 40 mg, single oral 40 mg fasted, powder-in-bottle, n = 6, median (range), read-out: Tmax
  Tmax: 2.5 h
[5]
  AUC(0-inf): 62000 ng·h/mL
  Cmax: 238 ng/mL
  Vd/F: 444 L
po, 80 mg, single oral 80 mg fasted, powder-in-bottle, n = 6, geometric mean (CV %), read-out: t1/2 (converted)
  half-life: 239 h
po, 80 mg, single oral 80 mg fasted, powder-in-bottle, n = 6, median (range), read-out: Tmax
  Tmax: 1 h
[6]
  AUC(0-inf): 82600 ng·h/mL
  Cmax: 518 ng/mL
  Vd/F: 432 L
po, 120 mg, single oral 120 mg fasted, powder-in-bottle, n = 5, geometric mean (CV %), read-out: t1/2 (converted)
  half-life: 206 h
po, 120 mg, single oral 120 mg fasted, powder-in-bottle, n = 5, median (range), read-out: Tmax
  Tmax: 1 h
Single oral 5 mg fasted, powder-in-bottle, n = 6, geometric mean (CV %)
  CL/F: 2.3 (76.3) liters h^−1
Single oral 20 mg fasted, powder-in-bottle, n = 6, geometric mean (CV %)
  CL/F: 0.6 (17.1) liters h^−1
Single oral 40 mg FED (high-fat breakfast), powder-in-bottle, n = 6, geometric mean (CV %)
  CL/F: 1.2 (67.5) liters h^−1
Single oral 40 mg fasted, powder-in-bottle, n = 6, geometric mean (CV %)
  CL/F: 2.3 (86.8) liters h^−1
Single oral 80 mg fasted, powder-in-bottle, n = 6, geometric mean (CV %)
  CL/F: 1.3 (46.0) liters h^−1
Single oral 120 mg fasted, powder-in-bottle, n = 5, geometric mean (CV %)
  CL/F: 1.5 (165.8) liters h^−1
